Reference: publication PMC7522794, “Synthesis and evaluation of novel 2,4-disubstituted arylthiazoles against T. brucei” (RSC Medicinal Chemistry, 2019)
Counter-ions that a name gives are not always drawn.

Experiments:
[1] = test system: Bloodstream form T. brucei (strain 427); assay: Trypanocidal activity against bloodstream form T. brucei (Alamar Blue growth inhibition); format: cell-based, Trypanosoma brucei; settings: 48 hours + overnight Alamar Blue; for IC50: concentration that inhibits growth by 50%; for IC90: concentration that inhibits growth by 90%
Description: Bloodstream form T. brucei (strain 427) were cultured at 37 °C in modified Iscove's medium. Trypanocidal activity was assessed by growing parasites in microtiter plates in the presence of various drug concentrations. […] The plates were incubated for 48 hours at 37 °C and 20 μL Alamar Blue was then added to each well. After an additional overnight incubation, the fluorescence was determined. Inhibition of growth was calculated by comparison with control values and IC50 and IC90 values were determined in triplicate using linear regression analysis.

[2] = Cytotoxic activity against rat skeletal myoblast L6 cells (Alamar Blue); format: cell-based; settings: rat, L6 cells (rat skeletal muscle line); cytotoxicity, 6 days incubation + 8 hours Alamar Blue
Description: (§1) Cytotoxicity against mammalian cells was assessed using microtitre plates. Briefly, L6 cells (a rat skeletal muscle line) were seeded at 1 × 10^4 mL^–1 in 200 μL of growth medium containing 7 different compound concentrations in a range previously established to encompass both the IC50 and IC90 values. The plates were incubated for 6 days at 37 °C and 20 μL Alamar Blue (Biosource UK Ltd) was then added to each well. After an additional 8 hours incubation, the fluorescence was determined using a FLUOstar Omega fluorescent plate reader (BMG Labtech). Inhibition of growth was calculated by comparison with control values and IC50 and IC90 values were determined in triplicate using linear regression analysis.

L6 cells = assay: as above; format: cell-based; settings: ratio of IC50 values obtained with L6 cells and T. brucei
Description: as §1

| Compound | melting point | IC50 ([1]; Trypanosoma brucei) | other results |
| --- | --- | --- | --- |
| 1-{2-[4-(1-Tricyclo[3.3.1.1^3,7]decyl)phenyl]thiazol-4-yl}guanidine [Compound 3e] |  |  | IC50 [1]: ~10 µM |
| CC(=O)NCCc1csc(-c2ccc(F)c(C34CC5CC(CC(C5)C3)C4)c2)n1 (as salt: fumarate) [Compound 1d, N-{2-[2-(3-(1-Tricyclo[3.3.1.1^3,7]decyl)-4-fluorophenyl]thiazol-4-yl]ethyl}acetamide] | 143 to 145 °C |  |  |
| CCCC(=O)NCCc1csc(-c2ccc(F)c(C34CC5CC(CC(C5)C3)C4)c2)n1 (as salt: fumarate) [Compound 1e, N-{2-[2-(3-(1-Tricyclo[3.3.1.1^3,7]decyl)-4-fluorophenyl)thiazol-4-yl]ethyl}butylamide] | 291 to 293 °C |  |  |
| O=C(NCCc1csc(-c2ccc(F)c(C34CC5CC(CC(C5)C3)C4)c2)n1)c1ccccc1 (as salt: fumarate) [Compound 1f, N-{2-[2-(3-(1-Tricyclo[3.3.1.1^3,7]decyl)-4-fluorophenyl)thiazol-4-yl]ethyl}benzamide] | 305 °C (dec.) |  |  |
| O=C(NCCc1csc(-c2ccc(F)c(C34CC5CC(CC(C5)C3)C4)c2)n1)c1ccc(F)cc1 (as salt: fumarate) [Compound 1g, N-{2-[2-(3-(1-Tricyclo[3.3.1.1^3,7]decyl)-4-fluorophenyl)thiazol-4-yl]ethyl}-4-fluorobenzamide] | 226 to 227 °C |  |  |
| O=C(NCCc1csc(-c2ccc(F)c(C34CC5CC(CC(C5)C3)C4)c2)n1)N1CCCC1 (as salt: fumarate) [Compound 1i, N-(2-(2-(3-(1-Tricyclo[3.3.1.1^3,7]decyl)-4-fluorophenyl)thiazol-4-yl)ethyl)pyrrolidin-1-yl-carboxamide] | 301 °C (dec.) |  |  |
| CNCCc1csc(-c2ccc(C34CC5CC(CC(C5)C3)C4)cc2)n1 (as salt: fumarate) [Compound 2b, 2-{2-[4-(1-Tricyclo[3.3.1.1^3,7]decyl)phenyl]thiazol-4-yl}-N-methylethan-1-amine] | 147 to 149 °C |  |  |
| CN(C)CCc1csc(-c2ccc(C34CC5CC(CC(C5)C3)C4)cc2)n1 (as salt: fumarate) [Compound 2c, 2-{2-[4-(1-Tricyclo[3.3.1.1^3,7]decyl)phenyl]thiazol-4-yl}-N,N-dimethylethan-1-amine] | 302 °C (dec.) |  |  |
| CC(=O)NCCc1csc(-c2ccc(C34CC5CC(CC(C5)C3)C4)cc2)n1 (as salt: fumarate) [Compound 2d, N-{2-[2-(4-(1-Tricyclo[3.3.1.1^3,7]decyl)phenyl)thiazol-4-yl]ethyl}acetamide] | 164 to 166 °C |  |  |
| NCCc1csc(-c2ccc(F)c(C34CC5CC(CC(C5)C3)C4)c2)n1 (as salt: hydrochloride) [Compound 1a, 2-{2-[3-(1-Tricyclo[3.3.1.1^3,7]decyl)-4-fluorophenyl]thiazol-4-yl}ethan-1-amine] | 246 to 248 °C |  |  |
| CNCCc1csc(-c2ccc(F)c(C34CC5CC(CC(C5)C3)C4)c2)n1 (as salt: hydrochloride) [Compound 1b, 2-{2-[3-(1-Tricyclo[3.3.1.1^3,7]decyl)-4-fluorophenyl]thiazol-4-yl}-N-methylethan-1-amine] | 221 to 223 °C |  |  |
| CN(C)CCc1csc(-c2ccc(F)c(C34CC5CC(CC(C5)C3)C4)c2)n1 (as salt: hydrochloride) [Compound 1c, 2-{2-[3-(1-Tricyclo[3.3.1.1^3,7]decyl)-4-fluorophenyl]thiazol-4-yl}-N,N-dimethylethyl-1-amine] | 280 to 282 °C |  |  |
| NCCc1csc(-c2ccc(C34CC5CC(CC(C5)C3)C4)cc2)n1 (as salt: hydrochloride) [Compound 2a, 2-{2-[4-(1-Tricyclo[3.3.1.1^3,7]decyl)phenyl]thiazol-4-yl}ethan-1-amine] | 225 °C (dec.) |  |  |
| NCCc1csc(-c2ccc(F)c(C34CC5CC(CC(C5)C3)C4)c2)n1 [Compound 1a, 2-{2-[3-(1-Tricyclo[3.3.1.1^3,7]decyl)-4-fluorophenyl]thiazol-4-yl}ethan-1-amine] |  | 0.42 ± 0.01 µM | IC50 [2]: 1.05 ± 0.23 µM; S.I. (selectivity index) (L6 cells): 2.5; IC90 ([1]; Trypanosoma brucei): 0.56 ± 0.01 µM |
| CNCCc1csc(-c2ccc(F)c(C34CC5CC(CC(C5)C3)C4)c2)n1 [Compound 1b, 2-{2-[3-(1-Tricyclo[3.3.1.1^3,7]decyl)-4-fluorophenyl]thiazol-4-yl}-N-methylethan-1-amine] |  | 0.9 ± 0.01 µM | IC50 [2]: 2.01 ± 0.32 µM; S.I. (selectivity index) (L6 cells): 2.2; IC90 ([1]; Trypanosoma brucei): 1.1 ± 0.01 µM |
| CN(C)CCc1csc(-c2ccc(F)c(C34CC5CC(CC(C5)C3)C4)c2)n1 [Compound 1c, 2-{2-[3-(1-Tricyclo[3.3.1.1^3,7]decyl)-4-fluorophenyl]thiazol-4-yl}-N,N-dimethylethyl-1-amine] |  | 0.79 ± 0.02 µM | IC50 [2]: 1.53 ± 0.09 µM; S.I. (selectivity index) (L6 cells): 1.9; IC90 ([1]; Trypanosoma brucei): 1.03 ± 0.01 µM |

| Compound | melting point | IC50 ([1]; Trypanosoma brucei) | other results |
| --- | --- | --- | --- |
| CC(=O)NCCc1csc(-c2ccc(F)c(C34CC5CC(CC(C5)C3)C4)c2)n1 [Compound 1d, N-{2-[2-(3-(1-Tricyclo[3.3.1.1^3,7]decyl)-4-fluorophenyl]thiazol-4-yl]ethyl}acetamide] |  | 15.3 ± 0.2 µM | IC90 ([1]; Trypanosoma brucei): 18.1 ± 0.2 µM |
| CCCC(=O)NCCc1csc(-c2ccc(F)c(C34CC5CC(CC(C5)C3)C4)c2)n1 [Compound 1e, N-{2-[2-(3-(1-Tricyclo[3.3.1.1^3,7]decyl)-4-fluorophenyl)thiazol-4-yl]ethyl}butylamide] |  | > 25 µM |  |
| O=C(NCCc1csc(-c2ccc(F)c(C34CC5CC(CC(C5)C3)C4)c2)n1)c1ccccc1 [Compound 1f, N-{2-[2-(3-(1-Tricyclo[3.3.1.1^3,7]decyl)-4-fluorophenyl)thiazol-4-yl]ethyl}benzamide] |  | > 20 µM |  |
| O=C(NCCc1csc(-c2ccc(F)c(C34CC5CC(CC(C5)C3)C4)c2)n1)c1ccc(F)cc1 [Compound 1g, N-{2-[2-(3-(1-Tricyclo[3.3.1.1^3,7]decyl)-4-fluorophenyl)thiazol-4-yl]ethyl}-4-fluorobenzamide] |  | > 20 µM |  |
| Cc1ccoc1C(=O)NCCc1csc(-c2ccc(F)c(C34CC5CC(CC(C5)C3)C4)c2)n1 [Compound 1h, N-{2-[2-(3-(1-Tricyclo[3.3.1.1^3,7]decyl)-4-fluorophenyl)thiazol-4-yl]ethyl}-3-methylfuran-2-ylcarboxamide] |  | > 20 µM |  |
| O=C(NCCc1csc(-c2ccc(F)c(C34CC5CC(CC(C5)C3)C4)c2)n1)N1CCCC1 [Compound 1i, N-(2-(2-(3-(1-Tricyclo[3.3.1.1^3,7]decyl)-4-fluorophenyl)thiazol-4-yl)ethyl)pyrrolidin-1-yl-carboxamide] |  | > 20 µM |  |
| CN(C)CCc1csc(-c2ccc(C34CC5CC(CC(C5)C3)C4)cc2)n1 [Compound 2c, 2-{2-[4-(1-Tricyclo[3.3.1.1^3,7]decyl)phenyl]thiazol-4-yl}-N,N-dimethylethan-1-amine] |  | 1.27 ± 0.07 µM | IC90 ([1]; Trypanosoma brucei): 1.6 ± 0.22 µM |
| CC(=O)NCCc1csc(-c2ccc(C34CC5CC(CC(C5)C3)C4)cc2)n1 [Compound 2d, N-{2-[2-(4-(1-Tricyclo[3.3.1.1^3,7]decyl)phenyl)thiazol-4-yl]ethyl}acetamide] |  | > 20 µM |  |
| N#CCc1csc(-c2ccc(C34CC5CC(CC(C5)C3)C4)cc2)n1 [Compound 2e, 2-{2-[4-(1-Tricyclo[3.3.1.1^3,7]decyl)phenyl]thiazol-4-yl}acetonitrile] | 159 to 160 °C | > 20 µM |  |
| N#CSCc1csc(-c2ccc(C34CC5CC(CC(C5)C3)C4)cc2)n1 [Compound 2f, 2-[4-(1-Tricyclo[3.3.1.1^3,7]decyl)phenyl]-4-(thiocyanatemethyl)thiazole] | 169 to 170 °C | ~10 µM |  |
| OCCc1csc(-c2ccc(C34CC5CC(CC(C5)C3)C4)cc2)n1 [Compound 2g, 2-{2-[4-(1-Tricyclo[3.3.1.1^3,7]decyl)phenyl]thiazol-4-yl}ethan-1-ol] | 93 to 94 °C | ~10 µM |  |
| [N-]=[N+]=NCCc1csc(-c2ccc(C34CC5CC(CC(C5)C3)C4)cc2)n1 [Compound 2h, 2-[4-(1-Tricyclo[3.3.1.1^3,7]decyl)phenyl]-4-(2-azidoethyl)thiazole] |  | > 20 µM |  |
| Br.NCc1nc(-c2ccc(C34CC5CC(CC(C5)C3)C4)cc2)cs1 [Compound 3b, 2-{4-[4-(1-Tricyclo[3.3.1.1^3,7]decyl)phenyl]thiazol-2-yl}methanamine difumarate] | 172 °C (dec.) | 9.76 ± 0.77 µM | IC50 [2]: 12.6 ± 0.9 µM; IC90 ([1]; Trypanosoma brucei): 12.8 ± 0.2 µM |
| O=C(NCCc1csc(-c2ccccc2)n1)C12CC3CC(CC(C3)C1)C2 [Compound 4a, N-(2-(2-Phenylthiazol-4-yl)ethyl)(1-tricyclo[3.3.1.1^3,7]decane)carboxamide] | 135 to 136 °C | 12.2 ± 0.8 µM | IC90 ([1]; Trypanosoma brucei): 18.7 ± 0.4 µM |
| CC1(C)[C@@H]2CC[C@]1(CS(=O)(=O)NCCc1csc(-c3ccccc3)n1)C(=O)C2 [Compound 4b, 1-((1R,4R)-7,7-Dimethyl-2-oxobicyclo[2.2.1]hept-1-yl)-N-(2-(2-phenylthiazol-4-yl)ethyl)methanesulfonamide] |  | 20.6 ± 0.7 µM | IC90 ([1]; Trypanosoma brucei): 31.1 ± 0.3 µM |
| O=C(NCCc1nc(-c2ccccc2)cs1)C12CC3CC(CC(C3)C1)C2 [Compound 4c, N-[2-(4-Phenylthiazol-2-yl)ethyl](1-tricyclo[3.3.1.1^3,7]decane)carboxamide] | 107 to 108 °C | 9.82 ± 0.22 µM | IC90 ([1]; Trypanosoma brucei): 13.1 ± 0.2 µM |
